The results in this text go back to ChEMBL document CHEMBL1126692, “Structure-activity relationships for mitomycins. Application of the distance and charge analysis method” (J Med Chem, 1993).

The species entered for one data set is Mus musculus. Kind of data set: Anti cancer activity was determined as effective dose. In kind it is functional.
Details: not given
In the case of `CO[C@@]12[C@H](COC(N)=O)C3=C(C(=O)C(C)=C(N)C3=O)N1C[C@@H]1N[C@@H]12` [MITOMYCIN], the 50% effect level (ED50) was put at a dose of 4.4 mg/kg.

The compound `C=C1C2=C(C(=O)C(C)=C(N)C2=O)N2C[C@H]3[C@H](N3C)[C@]12O` (some centres not stated) [MITOMYCIN Z] came in with an ED50 of 82 mg/kg. Same read-out and setting: for `C=C1C2=C(C(=O)C(C)=C(N)C2=O)N2C[C@H]3[C@H](N3C)[C@]12OC` (some centres not stated) [MITOMYCIN K] the value was 100 mg/kg; for `C=C1C2=C(C(=O)C(C)=C(OC)C2=O)N2C[C@H]3[C@H](N3C)[C@]12O` (some centres not stated) [MITOMYCIN H], 6.8 mg/kg; for `C=C1C2=C(C(=O)C(C)=C(OC)C2=O)N2C[C@H]3[C@H](N3C)[C@]12OC` (some centres not stated) [MITOMYCIN G], 35 mg/kg. Still for that read-out and setting: for `CO[C@@]12[C@H](COC(N)=O)C3=C(C(=O)C(C)=C(N)C3=O)N1C[C@H]1[C@@H]2N1C` (some centres not stated) [PORFIROMYCIN] the value was 22 mg/kg; for `COC1=C(C)C(=O)C2=C(C1=O)[C@@H](COC(N)=O)[C@@]1(OC)[C@H]3N[C@H]3CN21` [MITOMYCIN A], 1.1 mg/kg; for `C=C1C2=C(C(=O)C(C)=C(OC)C2=O)N2C[C@@H]3N[C@@H]3[C@]12OC`, 7.5 mg/kg. Compound `C=C1C2=C(C(=O)C(C)=C(N)C2=O)N2C[C@@H]3N[C@@H]3[C@]12OC` came in with a median effective dose (ED50) of 18 mg/kg.

Test system in another data set: not listed separately
Kind of data set: Anti cancer activity was determined as lethal dose. Type of data set: organism-based. The conditions noted are these: mouse, in vivo.
For `C=C1C2=C(C(=O)C(C)=C(N)C2=O)N2C[C@H]3[C@H](N3C)[C@]12O` (some centres not stated) [MITOMYCIN Z], the LD50 was 210 mg/kg.

`C=C1C2=C(C(=O)C(C)=C(N)C2=O)N2C[C@H]3[C@H](N3C)[C@]12OC` (some centres not stated) [MITOMYCIN K]: the LD50 was determined as 130 mg/kg.

Compound `C=C1C2=C(C(=O)C(C)=C(OC)C2=O)N2C[C@H]3[C@H](N3C)[C@]12O` (some centres not stated) [MITOMYCIN H] returned an LD50 of 12 mg/kg. Same read-out and setting: for `C=C1C2=C(C(=O)C(C)=C(OC)C2=O)N2C[C@H]3[C@H](N3C)[C@]12OC` (some centres not stated) [MITOMYCIN G] the value was 22 mg/kg.

As for `CO[C@@]12[C@H](COC(N)=O)C3=C(C(=O)C(C)=C(N)C3=O)N1C[C@H]1[C@@H]2N1C` (some centres not stated) [PORFIROMYCIN], the LD50 turned out to be 57 mg/kg. The same measure, in the same setting: for `COC1=C(C)C(=O)C2=C(C1=O)[C@@H](COC(N)=O)[C@@]1(OC)[C@H]3N[C@H]3CN21` [MITOMYCIN A] the value was 2.1 mg/kg; for `C=C1C2=C(C(=O)C(C)=C(OC)C2=O)N2C[C@@H]3N[C@@H]3[C@]12OC`, 13 mg/kg. The same measure, in the same setting: the value for `C=C1C2=C(C(=O)C(C)=C(N)C2=O)N2C[C@@H]3N[C@@H]3[C@]12OC` was 75 mg/kg.
